These molecules were tested against Phospholipase D2 (Homo sapiens) + Phospholipase D2 (Homo sapiens) (UniProt O14939+O14939) (assay: PLD2 inhibition potency in cells, dose response, cell-based, Lib32, assay 2B (AID 624004)). Conditions: cellular PLD2 activity assay.
Chain of Phospholipase D2 (Homo sapiens) + Phospholipase D2 (Homo sapiens) (O14939 whole entry, looked up): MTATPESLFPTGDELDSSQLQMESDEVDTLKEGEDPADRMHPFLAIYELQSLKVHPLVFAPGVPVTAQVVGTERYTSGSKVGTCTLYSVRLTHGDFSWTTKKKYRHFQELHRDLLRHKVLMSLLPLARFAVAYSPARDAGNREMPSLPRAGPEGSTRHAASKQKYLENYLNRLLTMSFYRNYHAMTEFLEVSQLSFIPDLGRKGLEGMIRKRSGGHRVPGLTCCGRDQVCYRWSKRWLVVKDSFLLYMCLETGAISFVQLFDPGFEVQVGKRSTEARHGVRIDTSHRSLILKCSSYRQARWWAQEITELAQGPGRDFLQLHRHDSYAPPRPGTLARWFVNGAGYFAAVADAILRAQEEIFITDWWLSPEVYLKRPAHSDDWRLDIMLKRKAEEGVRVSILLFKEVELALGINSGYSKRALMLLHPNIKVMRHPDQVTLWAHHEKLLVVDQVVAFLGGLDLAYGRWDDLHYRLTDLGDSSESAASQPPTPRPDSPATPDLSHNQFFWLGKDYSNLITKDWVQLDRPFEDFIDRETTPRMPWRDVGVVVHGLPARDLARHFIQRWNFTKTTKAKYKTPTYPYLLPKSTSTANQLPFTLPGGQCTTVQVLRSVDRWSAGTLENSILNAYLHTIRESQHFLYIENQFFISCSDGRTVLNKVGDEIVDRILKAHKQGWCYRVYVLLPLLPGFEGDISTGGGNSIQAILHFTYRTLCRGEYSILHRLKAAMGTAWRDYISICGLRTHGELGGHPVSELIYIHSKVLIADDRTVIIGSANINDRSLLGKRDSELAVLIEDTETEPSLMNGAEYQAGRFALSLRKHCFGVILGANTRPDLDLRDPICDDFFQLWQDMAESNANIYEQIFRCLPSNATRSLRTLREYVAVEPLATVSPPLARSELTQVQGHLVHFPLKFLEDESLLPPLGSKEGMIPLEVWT
Chain of Phospholipase D2 (Homo sapiens) + Phospholipase D2 (Homo sapiens) (O14939 whole entry, looked up): as above
For C[C@@H](CN1CCC2(CC1)C(=O)NCN2c1cccc(F)c1)NC(=O)c1ccc(F)cc1F, the IC50 was 947 nM.
Molecule C[C@@H](CN1CCC2(CC1)C(=O)NCN2c1cccc(F)c1)NC(=O)c1cccc(F)c1 has an IC50 of 1200 nM.
C[C@@H](CN1CCC2(CC1)C(=O)NCN2c1cccc(F)c1)NC(=O)c1ccc(F)cc1 was tested, and the IC50 was 34 nM.
For O=C(NCCN1CCC2(CC1)C(=O)NCN2c1cccc(F)c1)c1ccc(F)cc1, the IC50 was 355 nM.
In the case of C[C@@H](CN1CCC2(CC1)C(=O)NCN2c1cccc(F)c1)NC(=O)c1ccc(F)c(F)c1, the IC50 is reported as 120 nM.
O=C(NCCN1CCC2(CC1)C(=O)NCN2c1cccc(F)c1)c1ccc(Br)cc1 was tested, and the IC50 was 200 nM.
In the case of COc1cc(C(=O)N[C@@H](C)CN2CCC3(CC2)C(=O)NCN3c2cccc(F)c2)cc(OC)c1OC, the IC50 is reported as 72 nM.
Molecule COc1cc(C(=O)NCCN2CCC3(CC2)C(=O)NCN3c2cccc(F)c2)cc(OC)c1OC has an IC50 of 1430 nM.
In the case of C[C@@H](CN1CCC2(CC1)C(=O)NCN2c1cccc(F)c1)NC(=O)c1ccc(Br)cc1, the IC50 is reported as 84 nM.
In the case of C[C@@H](CN1CCC2(CC1)C(=O)NCN2c1cccc(F)c1)NC(=O)c1cccc([N+](=O)[O-])c1, the IC50 is reported as 430 nM.
